In data set [1] the test system is HCT116 colorectal cancer cells. The data set can be described thus: Cisplatin sensitization assay, 96 h cell viability (MTS). Type of data set: cell-based. The note with it: concentration of compound required to reduce the IC50 of Cisplatin alone by at least 3-fold; HCT116, 96 h. The procedure: Compounds can be screened for their ability to sensitize HCT116 colorectal cancer cells to Cisplatin using a 96 h cell viability (MTS) assay. […] Compounds and Cisplatin are then both added simultaneously to the cell media in 2-fold serial dilutions from a top final concentration of 10 μM as a full matrix of concentrations in a final cell volume of 200 μl, and the cells are then incubated at 37° C. in 5% CO2. After 96 h, 40 μl of MTS reagent (Promega G358a) is added to each well and the cells are incubated for 1 h at 37° C. in 5% CO2. Finally, absorbance is measured at 490 nm using a SpectraMax Plus 384 reader (Molecular Devices) and the concentration of compound required to reduce the IC50 of Cisplatin alone by at least 3-fold (to 1 decimal place) can be reported.

Data set [2] deals with HCT116 colorectal cancer cells. The data set can be described thus: Single agent HCT116 activity, 96 h cell viability (MTS) assay. The format is cell-based. The conditions noted are these: Homo sapiens, HCT-116; 96 h MTS cell viability; read-out: Single agent HT116 IC50. On the procedure: Compounds can be screened for single agent activity against HCT116 colorectal cancer cells using a 96 h cell viability (MTS) assay. HCT116 are plated at 470 cells per well in 96-well polystyrene plates (Costar 3596) in 150 μl of McCoy's 5A media (Sigma M8403) supplemented with 10% foetal bovine serum (JRH Biosciences 12003), Penicillin/Streptomycin solution diluted 1:100 (Sigma P7539), and 2 mM L-glumtamine (Sigma G7513), and allowed to adhere overnight at 37° C. in 5% CO2. Compounds are then added to the cell media in 2-fold serial dilutions from a top final concentration of 10 μM as a full matrix of concentrations in a final cell volume of 200 μl, and the cells are then incubated at 37° C. in 5% CO2. After 96 h, 40 μl of MTS reagent (Promega G358a) is added to each well and the cells are incubated for 1 h at 37° C. in 5% CO2. Finally, absorbance is measured at 490 nm using a SpectraMax Plus 384 reader (Molecular Devices) and IC50 values can be calculated.

The nature of data set [3]: Pharmacokinetics (noncompartmental, blood or plasma). The conditions noted are these: in vivo, intravenous (IV) dosing. The source says:
Noncompartmental pharmacokinetic parameters can be analyzed using Watson Bioanalytical LIMS (Version 7.4; Thermo Fisher Scientific) from either the blood or plasma samples. The following parameters are estimated following intravenous (IV) dosing; terminal elimination half-life (T1/2=ln(2)/λz, where λz is the first order rate constant associated with the terminal (log-linear) portion of the curve. The area under the curve (AUClast=area under the curve from the time of dosing to the last measurable concentration). The area under the curve extrapolated to infinity (AUC0-∞=AUClast+Clast/λz). The clearance (Cl; Cl=DoseIV/AUC0-∞).
The area under the first moment curve (AUMClast=area under the concentration times time versus time curve from the time of dosing to the last measurable concentration). The area under the first moment curve extrapolated to infinity (AUMC0-∞=AUMClast+Clast×t/λz+Clast/λz^2). The mean residence time (MRT=AUMC0-∞/AUC0-∞) and the steady state volume of distribution (Vdss=MRT×Cl).
Clearance and volume of distribution can also be obtained using methods known to one of skill in the art (see e.g., Handbook of Essential Pharmacokinetics, Pharmacodynamics and Drug Metabolism for Industrial Scientists, Younggil Kwon, pp 18-28 (Non-compartmental Approach)).

The test system of data set [4] is primary NSCLC model. Kind of data set: Primary non-small cell lung cancer (NSCLC) model with cisplatin as the DNA damaging agent. Type of data set: in vivo, mouse. The text has this: (§1) T/C=tumour size of treatment group compared with control group
Data set [5] deals with T1, full-length ATR (Homo sapiens, UniProt Q13535).
T1 construct: Assays are carried out at 25° C. in the presence of 5 nM full-length ATR
Kind of data set: ATR inhibition assay (radioactive-phosphate incorporation). Type of data set: biochemical. The conditions noted are these: Ki(app), 5 nM full-length ATR, 10 μM ATP. The procedure:
Compounds can be screened for their ability to inhibit ATR kinase using a radioactive-phosphate incorporation assay. Assays are carried out in a mixture of 50 mM Tris/HCl (pH 7.5), 10 mM MgCl2 and 1 mM DTT. Final substrate concentrations are 10 μM [γ-33P]ATP (3 mCi ^33P ATP/mmol ATP, Perkin Elmer) and 800 μM target peptide (ASELPASQPQPFSAKKK (SEQUENCE ID NO: 1)).
Assays are carried out at 25° C. in the presence of 5 nM full-length ATR. An assay stock buffer solution is prepared containing all of the reagents listed above, with the exception of ATP and the test compound of interest. 13.5 μL of the stock solution is placed in a 96 well plate followed by addition of 2 μL of DMSO stock containing serial dilutions of the test compound (typically starting from a final concentration of 15 μM with 3-fold serial dilutions) in duplicate (final DMSO concentration 7%). The plate is pre-incubated for 10 minutes at 25° C. and the reaction initiated by addition of 15 μL [γ-33P]ATP (final concentration 10 μM).
The reaction is stopped after 24 hours by the addition of 30 μL 0.1M phosphoric acid containing 2 mM ATP. A multiscreen phosphocellulose filter 96-well plate (Millipore, Cat no. MAPHN0B50) is pretreated with 100 μL 0.2M phosphoric acid prior to the addition of 45 μL of the stopped assay mixture. The plate is washed with 5×200 μL 0.2M phosphoric acid. After drying, 100 μL Optiphase ‘SuperMix’ liquid scintillation cocktail (Perkin Elmer) is added to the well prior to scintillation counting (1450 Microbeta Liquid Scintillation Counter, Wallac).
After removing mean background values for all of the data points, Ki(app) data are calculated from non-linear regression analysis of the initial rate data using the Prism software package (GraphPad Prism version 3.0cx for Macintosh, GraphPad Software, San Diego Calif., USA).

Data set [6] has as its target T2, intracellular ATR (Homo sapiens, UniProt Q13535).
T2 construct: endogenous in cells; host or cells: HT29
The data set can be described thus: Cellular ATR inhibition assay (H2AX phosphorylation in hydroxyurea treated HT29 cells). The format is cell-based. The conditions noted are these: 2 mM hydroxyurea, phosphorylated H2AX-positive nuclei. On the procedure: Compounds can be screened for their ability to inhibit intracellular ATR using an immunofluorescence microscopy assay to detect phosphorylation of the ATR substrate histone H2AX in hydroxyurea treated cells. HT29 cells are plated at 14,000 cells per well in 96-well black imaging plates (BD 353219) in McCoy's 5A media (Sigma M8403) supplemented with 10% foetal bovine serum (JRH Biosciences 12003), Penicillin/Streptomycin solution diluted 1:100 (Sigma P7539), and 2 mM L-glumtamine (Sigma G7513), and allowed to adhere overnight at 37° C. in 5% CO2. Compounds are then added to the cell media from a final concentration of 25 μM in 3-fold serial dilutions and the cells are incubated at 37° C. in 5% CO2. After 15 min, hydroxyurea (Sigma H8627) is added to a final concentration of 2 mM.
After 45 min of treatment with hydroxyurea, the cells are washed in PBS, fixed for 10 min in 4% formaldehyde diluted in PBS (Polysciences Inc 18814), washed in 0.2% Tween-20 in PBS (wash buffer), and permeabilised for 10 min in 0.5% Triton X-100 in PBS, all at room temperature. The cells are then washed once in wash buffer and blocked for 30 min at room temperature in 10% goat serum (Sigma G9023) diluted in wash buffer (block buffer). […]
Cells are imaged for Alexa Fluor 488 and Hoechst intensity using the BD Pathway 855 Bioimager and Attovision software (BD Biosciences, Version 1.6/855) to quantify phosphorylated H2AX Ser139 and DNA staining, respectively. The percentage of phosphorylated H2AX-positive nuclei in a montage of 9 images at 20× magnification is then calculated for each well using BD Image Data Explorer software (BD Biosciences Version 2.2.15). […] The percentage of H2AX positive nuclei is finally plotted against concentration for each compound and IC50s for intracellular ATR inhibition are determined using Prism software (GraphPad Prism version 3.0cx for Macintosh, GraphPad Software, San Diego Calif., USA).

The subject of data set [7] is Colo205 model. Kind of data set: COLO205 model with irinotecan as the DNA damaging agent. The format is in vivo, mouse.
Excerpt: as §1

Data set [8] is described as follows: Mouse PO/PK in tumor (FIG. 6). The format is in vivo. The conditions noted are these: mouse grafted with tumors, compared with Compound P-110. The source says: FIG. 6: Mouse PO/PK in tumor

T2 sequence (Q13535 whole entry): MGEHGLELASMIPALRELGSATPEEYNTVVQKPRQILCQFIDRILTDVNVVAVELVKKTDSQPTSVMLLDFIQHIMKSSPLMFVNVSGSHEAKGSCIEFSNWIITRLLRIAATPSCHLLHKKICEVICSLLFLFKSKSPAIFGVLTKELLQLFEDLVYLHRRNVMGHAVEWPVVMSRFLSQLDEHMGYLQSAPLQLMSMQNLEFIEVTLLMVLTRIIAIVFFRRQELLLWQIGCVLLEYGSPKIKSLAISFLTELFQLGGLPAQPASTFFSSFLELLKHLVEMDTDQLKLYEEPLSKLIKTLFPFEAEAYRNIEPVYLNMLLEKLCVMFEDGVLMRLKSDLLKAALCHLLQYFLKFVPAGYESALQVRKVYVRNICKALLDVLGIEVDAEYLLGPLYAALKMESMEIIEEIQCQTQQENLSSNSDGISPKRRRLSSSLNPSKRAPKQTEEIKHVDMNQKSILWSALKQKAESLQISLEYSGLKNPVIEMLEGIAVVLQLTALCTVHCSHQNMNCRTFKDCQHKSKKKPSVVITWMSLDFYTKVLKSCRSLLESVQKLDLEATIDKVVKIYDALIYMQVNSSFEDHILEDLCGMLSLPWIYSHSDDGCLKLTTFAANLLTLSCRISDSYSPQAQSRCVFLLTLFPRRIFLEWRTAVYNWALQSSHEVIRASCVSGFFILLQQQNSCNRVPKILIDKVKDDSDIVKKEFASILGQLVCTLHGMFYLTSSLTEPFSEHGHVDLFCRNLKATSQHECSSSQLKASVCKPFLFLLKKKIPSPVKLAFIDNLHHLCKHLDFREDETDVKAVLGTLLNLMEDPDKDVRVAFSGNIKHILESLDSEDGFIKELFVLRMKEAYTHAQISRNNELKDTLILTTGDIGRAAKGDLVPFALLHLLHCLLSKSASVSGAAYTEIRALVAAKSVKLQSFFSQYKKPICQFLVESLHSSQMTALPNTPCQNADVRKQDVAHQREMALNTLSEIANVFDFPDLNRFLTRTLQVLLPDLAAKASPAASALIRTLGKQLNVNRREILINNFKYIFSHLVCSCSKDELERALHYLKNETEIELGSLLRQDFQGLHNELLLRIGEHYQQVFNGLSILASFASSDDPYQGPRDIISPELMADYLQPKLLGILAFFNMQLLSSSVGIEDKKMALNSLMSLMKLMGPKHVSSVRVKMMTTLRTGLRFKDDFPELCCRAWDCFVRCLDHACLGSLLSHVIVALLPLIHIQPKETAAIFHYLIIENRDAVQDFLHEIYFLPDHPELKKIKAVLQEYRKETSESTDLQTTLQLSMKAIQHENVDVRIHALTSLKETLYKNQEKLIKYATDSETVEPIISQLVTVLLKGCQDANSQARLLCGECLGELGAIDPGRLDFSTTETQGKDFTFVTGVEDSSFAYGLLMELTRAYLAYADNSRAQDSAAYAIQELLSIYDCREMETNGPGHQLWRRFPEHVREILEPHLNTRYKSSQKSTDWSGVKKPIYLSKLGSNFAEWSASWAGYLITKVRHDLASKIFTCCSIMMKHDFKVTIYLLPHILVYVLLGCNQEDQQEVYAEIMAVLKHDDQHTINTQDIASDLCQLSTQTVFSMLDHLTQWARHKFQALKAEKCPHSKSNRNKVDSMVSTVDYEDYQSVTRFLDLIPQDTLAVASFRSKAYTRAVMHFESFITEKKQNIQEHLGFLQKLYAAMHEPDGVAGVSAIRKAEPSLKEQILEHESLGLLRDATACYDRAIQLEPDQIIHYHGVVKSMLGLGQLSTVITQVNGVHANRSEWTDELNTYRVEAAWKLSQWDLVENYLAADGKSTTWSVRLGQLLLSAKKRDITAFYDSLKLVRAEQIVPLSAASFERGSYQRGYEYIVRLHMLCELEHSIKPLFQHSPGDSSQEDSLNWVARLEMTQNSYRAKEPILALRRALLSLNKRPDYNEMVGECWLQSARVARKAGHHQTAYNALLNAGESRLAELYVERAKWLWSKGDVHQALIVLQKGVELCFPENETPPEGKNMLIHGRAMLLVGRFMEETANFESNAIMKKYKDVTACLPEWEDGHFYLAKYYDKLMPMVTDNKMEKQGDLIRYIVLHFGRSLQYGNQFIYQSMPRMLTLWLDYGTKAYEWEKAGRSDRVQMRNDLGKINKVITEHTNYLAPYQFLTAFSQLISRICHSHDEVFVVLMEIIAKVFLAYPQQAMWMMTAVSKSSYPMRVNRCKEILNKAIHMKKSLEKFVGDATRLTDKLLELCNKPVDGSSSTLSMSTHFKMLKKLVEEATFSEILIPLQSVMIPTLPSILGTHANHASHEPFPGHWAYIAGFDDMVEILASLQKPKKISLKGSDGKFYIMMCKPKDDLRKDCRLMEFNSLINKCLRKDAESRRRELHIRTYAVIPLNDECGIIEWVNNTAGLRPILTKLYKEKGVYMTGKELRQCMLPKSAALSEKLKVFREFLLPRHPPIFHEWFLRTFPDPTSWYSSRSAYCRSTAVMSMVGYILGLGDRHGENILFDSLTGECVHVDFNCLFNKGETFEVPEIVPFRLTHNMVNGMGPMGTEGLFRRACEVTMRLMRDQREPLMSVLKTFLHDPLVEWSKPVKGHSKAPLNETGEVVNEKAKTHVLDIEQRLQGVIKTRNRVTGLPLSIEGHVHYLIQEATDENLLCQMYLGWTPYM
T2 sequence (Q8WXE1 whole entry partner): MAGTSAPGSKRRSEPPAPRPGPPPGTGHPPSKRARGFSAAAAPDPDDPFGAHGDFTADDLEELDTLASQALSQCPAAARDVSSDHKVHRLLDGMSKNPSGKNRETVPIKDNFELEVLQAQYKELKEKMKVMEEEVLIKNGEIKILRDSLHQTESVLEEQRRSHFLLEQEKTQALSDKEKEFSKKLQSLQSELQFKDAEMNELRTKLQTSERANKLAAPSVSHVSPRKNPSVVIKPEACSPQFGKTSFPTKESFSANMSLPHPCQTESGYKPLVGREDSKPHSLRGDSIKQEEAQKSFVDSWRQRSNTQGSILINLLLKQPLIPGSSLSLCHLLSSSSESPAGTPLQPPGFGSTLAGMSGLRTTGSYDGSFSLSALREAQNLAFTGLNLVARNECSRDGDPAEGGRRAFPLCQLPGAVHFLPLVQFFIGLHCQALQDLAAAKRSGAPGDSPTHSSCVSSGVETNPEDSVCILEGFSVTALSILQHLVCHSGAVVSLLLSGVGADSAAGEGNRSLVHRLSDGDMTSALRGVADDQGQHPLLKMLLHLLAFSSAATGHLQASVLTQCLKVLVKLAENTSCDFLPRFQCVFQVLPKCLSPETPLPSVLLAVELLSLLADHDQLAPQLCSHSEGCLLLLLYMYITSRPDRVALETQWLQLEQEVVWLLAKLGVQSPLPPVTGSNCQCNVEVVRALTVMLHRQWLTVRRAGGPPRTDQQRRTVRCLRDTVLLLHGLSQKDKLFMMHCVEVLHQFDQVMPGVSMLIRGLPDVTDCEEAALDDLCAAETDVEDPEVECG
T1 sequence (Q13535 whole entry): as the sequence (Q13535 whole entry) above

In the case of `CC(C)S(=O)(=O)c1ccc(-c2cnc(N)c(-c3cc(-c4ccc(CNC5CCOCC5)cc4)no3)n2)cc1` [Compound I-1], the “Cisplatin sensitization” value in data set [1] came to 39 nM. The IC50 in data set [2] is 83 nM; in data set [6], 13 nM. The clearance in data set [3] stood at 7.1 mL/min/kg. For the same compound, the half-life in data set [3] is 282 min. In addition, in data set [3] (read-out: Vss), the Vd was found to be 2.8 L/kg. The Effect on tumors result is reported as “marked regression of tumors” in data set [4] (cisplatin 3 mg/kg, compound 30 mg/kg uid q2d) and “marked regression of tumors” in data set [7] (irinotecan 20 mg/kg, compound orally as a solution 40 mg/kg, PO qd3, five cycles). Also, the “% T/C (tumour size of treatment group compared with control group)” value stood at 1.7% in data set [4] (day 20, cisplatin 3 mg/kg, compound 30 mg/kg uid q2d) and 10.9% in data set [7] (day 13, irinotecan 20 mg/kg, compound 40 mg/kg PO qd3 of a four-day cycle, five cycles). For the same compound, the Ki in data set [5] came out at 0.14 nM. In addition, in data set [8], the “Oral exposure in tumors” value is given as “created oral exposure in tumors compared with Compound P-110”.
Regarding `[2H]C([2H])([2H])C([2H])(C([2H])([2H])[2H])S(=O)(=O)c1ccc(-c2cnc(N)c(-c3cc(-c4ccc(CNC5CCOCC5)cc4)no3)n2)cc1` [Compound II-2, 5-[4-[1,2,2,2-tetradeuterio-1-(trideuteriomethyl)ethyl]sulfonylphenyl]-3-[3-[4-[(tetrahydropyran-4-ylamino)methyl]phenyl]isoxazol-5-yl]pyrazin-2-amine], the “Cisplatin sensitization” value in data set [1] is reported as 39 nM. Further, the IC50 in data set [2] came out at 59 nM. Also, the Ki in data set [5] is 0.105 nM.
On to `CC(C)S(=O)(=O)c1ccc(-c2cnc(N)c(-c3cc(-c4ccc(CN[C@H]5CCOC5)cc4)no3)n2)cc1` [Compound P-110, reference compound], for which, in data set [4] (same model (cisplatin), compound 30 mpk bid (on/1 day off)), the Sensitisation result is reported as “no sensitisation”. Further, the Sensitization result in data set [7] (same model (irinotecan), compound 45 mg/kg twice a day (bid)) is “no sensitization”.
For `CC(C)S(=O)(=O)c1ccc(-c2cnc(N)c(-c3cc(-c4ccc(CN[C@@H]5CCOC5)cc4)no3)n2)cc1` [P-110 (R), reference compound], the “Cisplatin sensitization” value in data set [1] came to 78 nM. The IC50 in data set [2] was 205 nM. In addition, in data set [3], the clearance was determined as 12.7 mL/min/kg and the half-life was 162 min. Besides, the Ki in data set [5] turned out to be 0.29 nM. Inhibition in data set [6] was half-maximal at 54 nM (IC50).
As to `CC(C)S(=O)(=O)c1ccc(-c2cnc(N)c(-c3cc(-c4ccc(CN[C@H]5CCOC5)cc4)no3)n2)cc1` [P-110 (S), reference compound], the “Cisplatin sensitization” value in data set [1] was determined as 156 nM. Also, the IC50 in data set [2] came to 280 nM; in data set [6] it was 46 nM. Moreover, the Ki in data set [5] came out at 0.26 nM.

In general, IC50 refers to the concentration at which inhibition is half-maximal. Usually clearance stands for the rate of elimination divided by the concentration. By half-life is commonly meant the time needed for the level to fall by half in the phase considered. Higher therefore signals slow decline.

The values above are taken from patent publication US8846686B2, “Compounds useful as inhibitors of ATR kinase” (Vertex Pharmaceuticals Incorporated, priority 2011, dated 2014).
